Legend:
[1] = tested on: gerbil hippocampus CA1-layer, global ischaemia; experiment: Transient Forebrain Ischemia Model (2-VO Gerbils); format: in vivo; conditions: 30 mg/kg i.p. 30, 60 and 90 min post occlusion (total 90 mg/kg); ischaemic score 4 days later; Mann-Whitney test
Procedure: The compound, 8-methyl-5-(4-(N,N-dimethylsulphamoyl)-phenyl)-6,7,8,9-tetrahydro-1H-pyrrolo[3,2-h]isoquinoline-2,3-dione-3-oxime has also been tested in the following animal model of global ischaemia:
Transient Forebrain Ischemia Model (2-VO Gerbils)
Gerbils were anaesthetized with halothane, right and left carotid arteries located and occluded for 4 minutes. Animals were kept warm before and after the operation using heating lamps. During the operation the gerbils were placed on heating plates, body temperature controlled and maintained at 37°±0.5° C. Postocclusion, the gerbils were divided in two groups. One group received 30 mg/kg test compound i.p. 30, 60, and 90 min post occlusion (total dose was 90 mg/kg). The control group received 5.5% glucose i.p. at the same time intervals. Four days later, the animals were sacrificed, brains removed and cooled to -70° C. Thereafter, the brains were sectioned in […] thick sections of which 5-7 with hippocampal tissue were selected and stained with hematoxylin eosine (HE).
Based upon the degree of hippocampal damage, each hippocampus was categorised into one of four groups (Group 1: no damage in the CA1-layer; Group 2: the CA1-layer partly damaged; Group 3: the CA1-layer completely damaged; and Group 4: damage in more than just the CA1-layer). […]

[2] = tested on: AMPA-induced clonic seizures in NMRI mice; experiment: AMPA-induced clonic seizures; format: in vivo; conditions: Mus musculus; i.v. 5 min (or p.o. 30 min) before 0.3 μg icv AMPA, 10 female NMRI mice per dose; route of the value not given; read-out: ED50 (dose inhibiting 50% of the mice from having clonic seizures)
Procedure: The compound, 8-methyl-5-(4(N,N-dimethylsulphamoyl)-phenyl)-6,7,8,9-tetrahydro-1H-pyrrolo[3,2-h]isoquinoline-2,3-dione-3-oxime has also been tested for its ability to inhibit the clonic seizures induced by AMPA in the following test:
In Vivo activity (AMPA-induced clonic seizures)
AMPA given icv (intracerebroventricular) (15 μg/kg) to NMRI mice induces clonic seizures which should be inhibited by non-NMDA receptor antagonists. Method: Test compound was given i.v. 5 min (or p.o. 30 min) before a 0.3 μg icv administration of AMPA to 10 female NMRI mice (weighing 24-26 g) per dose. The number of mice experiencing clonic seizures within the next 5 min was noted. An ED50 value was calculated as the dose inhibiting 50% of the mice from having clonic seizures.

[3] = tested on: cultured cerebral cortex neurons; experiment: 3H-GABA release, cultured cerebral cortex neurons; format: cell-based; conditions: Cerebral cortex neuron; inhibition of stimulated 3H-GABA release, mouse cortical neurons, Table 1
From the text: The compounds of the invention have also been tested for their ability to inhibit GABA release from cultured cerebral cortex neurons in the following test:
^3 H-GABA Release, Cortical Neurons
Background: Neurons which express receptors for excitatory amino acids can be depolarized by such compounds and this depolarization will ultimately lead to a release of transmitter substance from the neurons. Cultured neurons obtained from 15-day-old mouse embryo cortex are mainly GABAergic and express all types of excitatory amino acid receptors. This means that they can be stimulated by high potassium or by the excitatory amino acids, NMDA, AMPA and kainate to release their neurotransmitter GABA.
^3 H-GABA may be used to label the GABA transmitter pool in the neurons and the release of ^3 H-GABA from the neurons may be used as a simple functional model for studies of the effects of excitatory amino acids and their antagonists.
Method: Cerebral cortices of 16-day-old mouse embryos are chopped in 0.4×0.4 mm cubes. The tissue is dissociated by mild trypsinization (0.1% (wt/vol) trypsin, 37° C., 15 min) and subsequently inoculated into poly-L-lysine-coated 3-cm Petri dishes containing a slightly modified DMEM (24.5 mM KCI, 30 mM glucose) supplemented with p-aminobenzoate (7 μM), insulin (100 mU/L) and 10% (vol/vol) horse serum. Cells are maintained in culture for 5-7 days with the addition of the antimitotic agent cytosine arbinoside (40 μM) from day 2 in vitro to prevent glial profileration. For further details and references, see Drejer et al. Exp. Brain Res. 47, 259 (1982).
Release experiments are performed using the model described by Drejer et al. Life Sci. 38, 2077 (1986). Cerebral cortex neurons cultured in Petri dishes (30 mm) are added 100 μM γ-vinyl-GABA one hour before the experiment in order to inhibit degradation of GABA in the neurons. 30 min before the experiment 5 μCi ^3 H-GABA is added to each culture and after this preloading period the cell monolayer at the bottom of the dish is covered with a piece of nylon mesh to protect the cells against mechanical damage and to facilitate dispersion of medium over the cell layer. The preloading medium is removed and the Petri dishes are placed in a superfusion system consisting of a peristaltic pump continously delivering thermostated 37° C. superfusion medium HEPES buffered saline (HBS): 10 mM HEPES, 135 mM NaCl, 5 mM KCI, 0.6 mM MgSO4, 1.0 mM CaCl2 and 6 mM D-glucose; pH 7.4) from a reservoir to the top of the slightly tilted Petri dish. The medium is continously collected from the lower part of the dish and delivered to a fraction collector. Initially, the cells are superfused with HBS for 15 min (flow rate 2 ml/min). Then the cells are stimulated for 30 sec every 4 min by changing the superfusion medium from HBS to a corresponding medium containing […].
Test subtances are dissolved in 50% DMSO, 48% ethanol. The final DMSO and ethanol concentration in the assay must not exceed 0.1%.
The stimulated release of ^3 H-GABA (cpm) are corrected for the mean basal release(cpm) before and after stimulation.
The stimulated release in the presence of antagonists are expressed relative to the stimulated release and the IC50 value for the antagonist is calculated (the concentration (μM) of the test substance which inhibit 50% of the stimulated ^3 H-GABA release).
(§1) The test results obtained by testing the compounds of the invention for their in-vitro AMPA receptor affinity and their ability to inhibit GABA release are presented in the following table: […]

AMPA receptor = AMPA receptor binding affinity (in vitro); conditions: Table 1
From the text: In Vitro activity (receptor affinity):
as §1

| IC50 [3] | IC50 (AMPA receptor) | SMILES | neuroprotective effect in the gerbil 2-VO model [1] | ED50 [2] |
| --- | --- | --- | --- | --- |
| 0.12 µM | 0.02 µM | CN1CCc2c(-c3ccc(S(=O)(=O)N(C)C)cc3)cc3c(c2C1)NC(=O)C3=NO [8-methyl-5-(4-(N,N-dimethylsulphamoyl)-phenyl)-6,7,8,9-tetrahydro-1H-pyrrolo[3,2-h]-isoquinoline-2,3-dione-3-oxime] | significant neuroprotective effect | 3 mg/kg |
| 0.16 µM | 0.018 µM | CCN(CC)S(=O)(=O)c1ccc(-c2cc3c(c4c2CCN(C)C4)NC(=O)C3=NO)cc1 [8-methyl-5-(4-(N,N-diethylsulphamoyl)-phenyl)-6,7,8,9-tetrahydro-1H-pyrrolo[3,2-h]-isoquinoline-2,3-dione-3-oxime] | – | – |

Reference: patent publication US5801174A, “Fused indole and quinoxaline derivatives, their preparation and use” (Neurosearch A/S, priority 1994, dated 1998)
